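Where inhibition never reached the appropriate level, the endpoint shown equals the highest concentration tested. Otherwise, values were interpolated linearly from a five-concentration, 48-hour dose response in 96-well plates. At the GI50, growth is halved. Definition used: TGI = concentration required for complete inhibition of growth.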 A value given as a limit tells only on which side of the number the result lay.

Test systems include A549 NSCLC; HCT-116 colon; NCI-H460 lung; OVCAR-8 ovarian; PC-3 prostate; SF-268 CNS; SK-OV-3 ovarian; SR leukemia; TK-10 renal; UACC-62 melanoma.
Common to all, as to experiment: DTP human tumour cell line panel, 48 h

With `NC(=O)Nc1ccc2ncnc(Nc3ccc(Cl)cc3)c2c1`, the GI50 in the test on A549 NSCLC was 18.4 µM; in the test on HCT-116 colon, 24.9 µM; with NCI-H460 lung, 24.5 µM; with OVCAR-8 ovarian, 20.4 µM; in the test on PC-3 prostate, 19.4 µM; in the test on SF-268 CNS it was 21.7 µM. The GI50 was 4.5 µM with SK-OV-3 ovarian, 21.3 µM with SR leukemia, 1.72 µM with TK-10 renal and 14.3 µM in the test on UACC-62 melanoma. Moreover, the TGI was more than 100 µM in the test with A549 NSCLC; 98.2 µM with HCT-116 colon; more than 100 µM in the test with NCI-H460 lung; more than 96.6 µM in the test on OVCAR-8 ovarian; more than 96.2 µM in the test with PC-3 prostate; more than 100 µM in the test on SF-268 CNS. Moreover, the TGI with SK-OV-3 ovarian came out at 34.1 µM; in the test with SR leukemia, 75.8 µM; in the test with TK-10 renal, 23.4 µM; with UACC-62 melanoma, 37.3 µM.
For `Cc1cc(-c2ccccc2)c(C)n1Cc1ccc(Cl)cc1`, the GI50 in the test on A549 NSCLC is 5.73 µM; in the test on HCT-116 colon, 3.8 µM; in the test with NCI-H460 lung, 3.75 µM; in the test on OVCAR-8 ovarian, 5.95 µM; with PC-3 prostate it was 5.18 µM; with SF-268 CNS, 13.6 µM. Moreover, the GI50 with SK-OV-3 ovarian is 5.92 µM; with SR leukemia, 0.592 µM; in the test with TK-10 renal, 9.66 µM; in the test on UACC-62 melanoma it was 3.44 µM. Besides, the TGI in the test on A549 NSCLC was more than 100 µM; with HCT-116 colon it was 23.4 µM; with NCI-H460 lung, more than 100 µM; in the test on OVCAR-8 ovarian, more than 100 µM; with PC-3 prostate, more than 100 µM; in the test with SF-268 CNS, more than 100 µM. Moreover, the TGI is more than 100 µM with SK-OV-3 ovarian, 26.7 µM with SR leukemia, 65.4 µM in the test on TK-10 renal and more than 100 µM in the test on UACC-62 melanoma.
For `Clc1ccccc1-c1nc2ccccc2[nH]1`, the GI50 with A549 NSCLC, in the test with HCT-116 colon, in the test with NCI-H460 lung, in the test with OVCAR-8 ovarian, with PC-3 prostate and in the test on SF-268 CNS was more than 100 µM each time. Moreover, the GI50 in the test with SK-OV-3 ovarian, in the test on SR leukemia, in the test on TK-10 renal and in the test with UACC-62 melanoma was more than 100 µM throughout. Besides, the TGI with A549 NSCLC, in the test on HCT-116 colon, in the test on NCI-H460 lung, in the test with OVCAR-8 ovarian, in the test with PC-3 prostate and with SF-268 CNS was more than 100 µM each time. Further, the TGI with SK-OV-3 ovarian, in the test on SR leukemia, in the test on TK-10 renal and in the test on UACC-62 melanoma was more than 100 µM throughout.
With `O=C(CCCn1ccnc1[N+](=O)[O-])NCCn1cnc([N+](=O)[O-])c1`, the TGI in the test with A549 NSCLC, in the test on HCT-116 colon, in the test on NCI-H460 lung, in the test on OVCAR-8 ovarian, in the test with PC-3 prostate and with SF-268 CNS was more than 100 µM throughout. In addition, the TGI in the test on SK-OV-3 ovarian, in the test on SR leukemia, in the test on TK-10 renal and in the test on UACC-62 melanoma was more than 100 µM in each case.
On to `COc1cc(C(=O)/C=C/c2c(-c3ccc(F)cc3)nc3sccn23)cc(OC)c1OC`, for which the GI50 was 2.54 µM with A549 NSCLC; 2.31 µM in the test with HCT-116 colon; 1.95 µM in the test on NCI-H460 lung; 2.4 µM with OVCAR-8 ovarian; 3.57 µM in the test on PC-3 prostate; 2.37 µM in the test on SF-268 CNS. For the same compound, the GI50 in the test on SK-OV-3 ovarian was 2.68 µM; with SR leukemia it was 1.41 µM; in the test with TK-10 renal, 3.6 µM; in the test with UACC-62 melanoma, 2.28 µM. Moreover, the TGI is more than 21.1 µM with A549 NSCLC; 8.75 µM in the test with HCT-116 colon; 4.51 µM in the test on NCI-H460 lung; more than 21.4 µM in the test on OVCAR-8 ovarian; more than 46.2 µM with PC-3 prostate; 7.36 µM in the test on SF-268 CNS. Also, the TGI is 11.9 µM with SK-OV-3 ovarian, 5.09 µM in the test on SR leukemia, more than 24.6 µM with TK-10 renal and 13.9 µM in the test with UACC-62 melanoma.
With `COc1ccc(N2CCN(CC(=O)N3CCN(c4nnc(-c5ccccc5)c(-c5ccccc5)n4)CC3)CC2)cc1`, the GI50 was 16.2 µM in the test with A549 NSCLC; 3.96 µM with HCT-116 colon; 5.96 µM in the test on NCI-H460 lung; 35.8 µM in the test with OVCAR-8 ovarian; 5.5 µM in the test with PC-3 prostate; 9.16 µM with SF-268 CNS. The results for the GI50 in the test on SK-OV-3 ovarian, in the test on SR leukemia and in the test on TK-10 renal were more than 27.9 µM, 2.41 µM and 9.39 µM, respectively. For the same compound, the TGI with A549 NSCLC is more than 100 µM; with HCT-116 colon, 38.6 µM; with NCI-H460 lung, more than 100 µM; in the test on OVCAR-8 ovarian, more than 100 µM; in the test with PC-3 prostate it was more than 100 µM; in the test with SF-268 CNS, more than 100 µM. The TGI was more than 100 µM in the test with SK-OV-3 ovarian, 6.97 µM in the test with SR leukemia and more than 100 µM with TK-10 renal.
As to `COc1cc(/C=C/C(=O)c2c(C)n([O-])c3cc(C)c(C)cc3[n+]2=O)cc(OC)c1OC`, the GI50 was 8.08 µM with HCT-116 colon; 10.9 µM in the test with NCI-H460 lung; 23.6 µM in the test with OVCAR-8 ovarian; 14.2 µM with PC-3 prostate; 12.5 µM with SF-268 CNS; 32.4 µM in the test with SK-OV-3 ovarian. Further, the GI50 was 13.4 µM with SR leukemia, 14.8 µM with TK-10 renal and 15.5 µM in the test with UACC-62 melanoma. Also, the TGI amounted to 38.3 µM in the test with HCT-116 colon; 26.3 µM in the test on NCI-H460 lung; 71.8 µM in the test with OVCAR-8 ovarian; 38.5 µM in the test on PC-3 prostate; 32.3 µM in the test with SF-268 CNS; 91.9 µM with SK-OV-3 ovarian. Besides, the TGI in the test on SR leukemia is more than 100 µM; in the test with TK-10 renal it was 31.2 µM; in the test with UACC-62 melanoma, 37.9 µM.
With `BrP(NC1CCCCCC1)(c1ccccc1)(c1ccccc1)c1ccccc1`, the TGI was 25.8 µM in the test on A549 NSCLC; more than 100 µM in the test with HCT-116 colon; 10.7 µM in the test on OVCAR-8 ovarian; 5.53 µM in the test on PC-3 prostate; 11.1 µM in the test with SF-268 CNS; more than 100 µM with SR leukemia. Besides, the TGI with TK-10 renal came out at 21.3 µM; in the test on UACC-62 melanoma it was 15.9 µM.
On to `CC(=O)Nc1ccc(-c2nnc(SCC(=O)Nc3ccccc3[N+](=O)[O-])o2)cc1`, for which the TGI with A549 NSCLC, in the test on HCT-116 colon, in the test with NCI-H460 lung, in the test with OVCAR-8 ovarian, with SF-268 CNS and in the test with SK-OV-3 ovarian was more than 100 µM each time. Besides, the TGI in the test on SR leukemia, in the test with TK-10 renal and in the test with UACC-62 melanoma was more than 100 µM each time.

The values above are taken from PubChem BioAssay (NCI).
